In paper PMC2876253, “MHC I Stabilizing Potential of Computer-Designed Octapeptides” (Journal of Biomedicine and Biotechnology, 2010):
pEC50: −log10 of the molar value. Where no end group is shown, it is not given here.

biological target: T1, H-2K^b (Mus musculus, UniProt P01901); assay: MHC I stabilization assay with TAP-deficient RMA-S cells; assay type: cell-based; settings: peptide concentration for 50% of maximal MHC I stabilization (half-maximal MFI), 100 to 5.6 × 10^−4 μg/mL, 1 h room temperature then 1 h 37°C, flow cytometry with antibody B8.24.3, standard deviation in brackets, N = 3, n.d.: not detectable, SD, read-out: Experimental EC50
T1 construct: For accumulation of peptide-free MHC I proteins at the cell surface, the cells were cultured for 16 hours at 26°C; endogenous in cells; host or cells: RMA-S cells (TAP-deficient mouse T lymphoma)
T1 sequence (P01901 22-369): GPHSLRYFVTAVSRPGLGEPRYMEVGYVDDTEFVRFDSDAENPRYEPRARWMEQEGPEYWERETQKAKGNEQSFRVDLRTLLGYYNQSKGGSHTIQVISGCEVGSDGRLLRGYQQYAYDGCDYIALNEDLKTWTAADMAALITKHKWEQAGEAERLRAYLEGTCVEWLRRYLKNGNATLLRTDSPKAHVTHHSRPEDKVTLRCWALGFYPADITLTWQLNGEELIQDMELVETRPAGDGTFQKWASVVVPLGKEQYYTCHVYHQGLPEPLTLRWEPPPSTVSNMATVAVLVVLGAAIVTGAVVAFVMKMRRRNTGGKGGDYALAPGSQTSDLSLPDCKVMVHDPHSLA
T1 sequence (P01887 21-119 partner): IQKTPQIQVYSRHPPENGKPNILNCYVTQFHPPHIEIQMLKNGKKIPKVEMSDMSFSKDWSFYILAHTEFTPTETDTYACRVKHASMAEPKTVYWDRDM
Experimental: The stabilization assay was performed as described by Brock et al. using TAP-deficient RMA-S cells (mutagenized Rauscher virus-induced T lymphoma cells of mouse origin). The cells were cultured in DMEM (Gibco-BRL, Karlsruhe, Germany) with 10% FCS (Sigma-Aldrich, Steinheim, Germany) at 37°C with 8% CO2. For accumulation of peptide-free MHC I proteins at the cell surface, the cells were cultured for 16 hours at 26°C. […] The stabilized MHC I proteins were visualized and quantified by flow cytometry using the H-2K^b specific monoclonal antibody B8.24.3 [23] purified in the laboratory from hybridoma culture supernatant by protein G affinity chromatography (Pierce, Darmstadt, Germany) and an R-Phycoerythrin-conjugated anti-mouse antibody (Dianova GmbH, Hamburg, Germany) as secondary reagent. The stabilizing effect of the peptides was determined as mean fluorescence intensity (MFI). The EC50 value is the peptide concentration that is required for half-maximal stabilization of the MHC I molecules at the cell surfaces (half-maximal MFI). All peptides were custom-synthesized by EMC microcollections GmbH (Tübingen, Germany).

Sequence | pEC50
WDFKFDSV [Peptide 7] | 5.05
FHWDYRGL [Peptide 3] | 4.60
WRFIYFNL [Peptide 6] | 5.44
FRYPYKTL [Peptide 1] | 4.62
WKFIFDPV [Peptide 8] | 6.40
WRFVYWRL [Peptide 5] | 5.10
WRFKYDNL [Peptide 4] | 5.15

same assay, conditions: peptide concentration for 50% of maximal MHC I stabilization (half-maximal MFI), 100 to 5.6 × 10^−4 μg/mL, 1 h room temperature then 1 h 37°C, flow cytometry with antibody B8.24.3, standard deviation in brackets, N = 3, n.d.: not detectable, read-out: Experimental EC50

Sequence | pEC50
FHHAHRTV [sequence 9] | 5.05
FRYIYHTL [Seq. 2] | 4.70

biological target: T1, H-2K^b; assay: not given; parameters: method as in PMID 1606619; settings: known nonstabilizing octapeptide; cited from earlier work

Sequence | H-2K^b stabilizing effect in words
LSPFPFDL | nonstabilizing
